Literature values in paper PMC6791383, “A side-by-side evaluation of [^18F]FDOPA enantiomers for non-invasive detection of neuroendocrine tumors by positron emission tomography” (Oncotarget, 2019).

Test system: LAT1
Set-up: method as in PMID 21770378, PMID 11901210, PMID 25205473, PMID 30048132
Conditions: cited from earlier work

## N[C@H](Cc1ccc(O)c(O)c1)C(=O)O [D-DOPA, 3,4-dihydroxy-D-phenylalanine]
  IC50: 46 ± 23 µM
